Key:
FES (human) = FES (human) (UniProt P07332); experiment: Z-Lyte, FRET
[1] = test system: ABL1 (human), P00519 [E255K]; experiment: KINOMEscan competition binding; settings: compound 10.0 µM
AKT3 (human) = AKT3 (human) (UniProt Q9Y243); experiment: KINOMEscan competition binding; settings: compound 10.0 µM
BLK (human) = BLK (human) (UniProt P51451); experiment: KINOMEscan competition binding; settings: compound 10.0 µM
CLK1 (human) = CLK1 (human) (UniProt P49759); experiment: KINOMEscan competition binding; settings: compound 10.0 µM
CLK4 (human) = CLK4 (human) (UniProt Q9HAZ1); experiment: KINOMEscan competition binding; settings: compound 10.0 µM
CSF1R (human) = CSF1R (human) (UniProt P07333); experiment: KINOMEscan competition binding; settings: compound 10.0 µM
CSNK1E (human) = CSNK1E (human) (UniProt P49674); experiment: KINOMEscan competition binding; settings: compound 10.0 µM
DAPK2 (human) = DAPK2 (human) (UniProt Q9UIK4); experiment: KINOMEscan competition binding; settings: compound 10.0 µM
DYRK1B (human) = DYRK1B (human) (UniProt Q9Y463); experiment: KINOMEscan competition binding; settings: compound 10.0 µM
[2] = test system: EGFR (human), P00533 [P753S; 747-752 del]; experiment: KINOMEscan competition binding; settings: compound 10.0 µM
FGFR1 (human) = FGFR1 (human) (UniProt P11362); experiment: KINOMEscan competition binding; settings: compound 10.0 µM
FGFR2 (human) = FGFR2 (human) (UniProt P21802); experiment: KINOMEscan competition binding; settings: compound 10.0 µM
[3] = test system: FGFR3 (human), P22607 [G697C]; experiment: KINOMEscan competition binding; settings: compound 10.0 µM
HIPK1 (human) = HIPK1 (human) (UniProt Q86Z02); experiment: KINOMEscan competition binding; settings: compound 10.0 µM
IKBKB (human) = IKBKB (human) (UniProt O14920); experiment: KINOMEscan competition binding; settings: compound 10.0 µM
[4] = biological target: JAK1 JH1 catalytic (human) (UniProt P23458); experiment: KINOMEscan competition binding; settings: compound 10.0 µM
[5] = biological target: JAK3 JH1 catalytic (human) (UniProt P52333); experiment: KINOMEscan competition binding; settings: compound 10.0 µM
MAP2K2 (human) = MAP2K2 (human) (UniProt P36507); experiment: KINOMEscan competition binding; settings: compound 10.0 µM
MAP2K6 (human) = MAP2K6 (human) (UniProt P52564); experiment: KINOMEscan competition binding; settings: compound 10.0 µM
MAP3K3 (human) = MAP3K3 (human) (UniProt Q99759); experiment: KINOMEscan competition binding; settings: compound 10.0 µM
MAP4K1 (human) = MAP4K1 (human) (UniProt Q92918); experiment: KINOMEscan competition binding; settings: compound 10.0 µM
MAPK14 (human) = MAPK14 (human) (UniProt Q16539); experiment: KINOMEscan competition binding; settings: compound 10.0 µM
MAPK3 (human) = MAPK3 (human) (UniProt P27361); experiment: KINOMEscan competition binding; settings: compound 10.0 µM
MAPK6 (human) = MAPK6 (human) (UniProt Q16659); experiment: KINOMEscan competition binding; settings: compound 10.0 µM
MKNK2 (human) = MKNK2 (human) (UniProt Q9HBH9); experiment: KINOMEscan competition binding; settings: compound 10.0 µM
MYO3B (human) = MYO3B (human) (UniProt Q8WXR4); experiment: KINOMEscan competition binding; settings: compound 10.0 µM
NEK5 (human) = NEK5 (human) (UniProt Q6P3R8); experiment: KINOMEscan competition binding; settings: compound 10.0 µM
PDGFRA (human) = PDGFRA (human) (UniProt P16234); experiment: KINOMEscan competition binding; settings: compound 10.0 µM
PDGFRB (human) = PDGFRB (human) (UniProt P09619); experiment: KINOMEscan competition binding; settings: compound 10.0 µM
PIM1 (human) = PIM1 (human) (UniProt P11309); experiment: KINOMEscan competition binding; settings: compound 10.0 µM
PIP5K1A (human) = PIP5K1A (human) (UniProt Q99755); experiment: KINOMEscan competition binding; settings: compound 10.0 µM
PRKAA2 (human) = PRKAA2 (human) (UniProt P54646); experiment: KINOMEscan competition binding; settings: compound 10.0 µM
PRKCQ (human) = PRKCQ (human) (UniProt Q04759); experiment: KINOMEscan competition binding; settings: compound 10.0 µM
RIPK1 (human) = RIPK1 (human) (UniProt Q13546); experiment: KINOMEscan competition binding; settings: compound 10.0 µM
STK17A (human) = STK17A (human) (UniProt Q9UEE5); experiment: KINOMEscan competition binding; settings: compound 10.0 µM
STK33 (human) = STK33 (human) (UniProt Q9BYT3); experiment: KINOMEscan competition binding; settings: compound 10.0 µM
STK36 (human) = STK36 (human) (UniProt Q9NRP7); experiment: KINOMEscan competition binding; settings: compound 10.0 µM
TAOK1 (human) = TAOK1 (human) (UniProt Q7L7X3); experiment: KINOMEscan competition binding; settings: compound 10.0 µM
TNNI3K (human) = TNNI3K (human) (UniProt Q59H18); experiment: KINOMEscan competition binding; settings: compound 10.0 µM
TTK (human) = TTK (human) (UniProt P33981); experiment: KINOMEscan competition binding; settings: compound 10.0 µM
TYRO3 (human) = TYRO3 (human) (UniProt Q06418); experiment: KINOMEscan competition binding; settings: compound 10.0 µM

MKNK2 (human), sequence (Q9HBH9 whole entry, looked up): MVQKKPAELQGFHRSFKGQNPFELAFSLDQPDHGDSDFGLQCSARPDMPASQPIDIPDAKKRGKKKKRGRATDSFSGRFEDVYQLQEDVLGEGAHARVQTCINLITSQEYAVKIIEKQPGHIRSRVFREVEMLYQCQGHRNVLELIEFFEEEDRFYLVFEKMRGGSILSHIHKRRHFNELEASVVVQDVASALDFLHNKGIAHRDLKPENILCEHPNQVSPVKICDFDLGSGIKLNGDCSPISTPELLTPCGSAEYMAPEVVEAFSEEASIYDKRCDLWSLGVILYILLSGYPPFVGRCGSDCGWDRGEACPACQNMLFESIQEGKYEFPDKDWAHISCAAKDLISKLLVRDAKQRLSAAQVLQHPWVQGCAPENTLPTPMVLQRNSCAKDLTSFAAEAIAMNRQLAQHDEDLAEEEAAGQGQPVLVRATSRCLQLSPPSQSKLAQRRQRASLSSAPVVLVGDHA
FGFR1 (human), sequence (P11362 whole entry, looked up): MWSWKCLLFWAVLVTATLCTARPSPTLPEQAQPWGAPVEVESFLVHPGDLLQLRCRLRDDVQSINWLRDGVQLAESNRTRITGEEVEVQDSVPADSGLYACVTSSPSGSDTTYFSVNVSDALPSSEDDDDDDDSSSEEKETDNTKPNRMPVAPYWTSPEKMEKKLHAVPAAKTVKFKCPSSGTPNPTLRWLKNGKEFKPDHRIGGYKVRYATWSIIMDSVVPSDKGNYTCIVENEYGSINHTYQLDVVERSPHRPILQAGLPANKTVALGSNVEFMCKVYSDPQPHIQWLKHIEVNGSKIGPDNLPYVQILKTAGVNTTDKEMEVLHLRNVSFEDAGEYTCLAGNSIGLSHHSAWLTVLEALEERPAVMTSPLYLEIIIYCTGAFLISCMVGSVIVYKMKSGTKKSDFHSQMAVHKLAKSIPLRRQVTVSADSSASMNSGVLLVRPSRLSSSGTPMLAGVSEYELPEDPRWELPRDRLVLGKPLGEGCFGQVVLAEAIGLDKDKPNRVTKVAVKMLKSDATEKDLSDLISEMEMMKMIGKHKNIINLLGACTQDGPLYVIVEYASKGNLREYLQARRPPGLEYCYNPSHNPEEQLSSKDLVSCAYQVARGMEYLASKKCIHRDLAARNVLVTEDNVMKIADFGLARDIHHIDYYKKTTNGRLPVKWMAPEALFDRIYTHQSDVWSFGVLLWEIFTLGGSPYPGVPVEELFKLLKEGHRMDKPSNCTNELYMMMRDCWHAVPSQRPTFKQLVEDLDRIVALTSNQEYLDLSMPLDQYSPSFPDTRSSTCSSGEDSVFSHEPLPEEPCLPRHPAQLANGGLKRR
CSF1R (human), sequence (P07333 whole entry, looked up): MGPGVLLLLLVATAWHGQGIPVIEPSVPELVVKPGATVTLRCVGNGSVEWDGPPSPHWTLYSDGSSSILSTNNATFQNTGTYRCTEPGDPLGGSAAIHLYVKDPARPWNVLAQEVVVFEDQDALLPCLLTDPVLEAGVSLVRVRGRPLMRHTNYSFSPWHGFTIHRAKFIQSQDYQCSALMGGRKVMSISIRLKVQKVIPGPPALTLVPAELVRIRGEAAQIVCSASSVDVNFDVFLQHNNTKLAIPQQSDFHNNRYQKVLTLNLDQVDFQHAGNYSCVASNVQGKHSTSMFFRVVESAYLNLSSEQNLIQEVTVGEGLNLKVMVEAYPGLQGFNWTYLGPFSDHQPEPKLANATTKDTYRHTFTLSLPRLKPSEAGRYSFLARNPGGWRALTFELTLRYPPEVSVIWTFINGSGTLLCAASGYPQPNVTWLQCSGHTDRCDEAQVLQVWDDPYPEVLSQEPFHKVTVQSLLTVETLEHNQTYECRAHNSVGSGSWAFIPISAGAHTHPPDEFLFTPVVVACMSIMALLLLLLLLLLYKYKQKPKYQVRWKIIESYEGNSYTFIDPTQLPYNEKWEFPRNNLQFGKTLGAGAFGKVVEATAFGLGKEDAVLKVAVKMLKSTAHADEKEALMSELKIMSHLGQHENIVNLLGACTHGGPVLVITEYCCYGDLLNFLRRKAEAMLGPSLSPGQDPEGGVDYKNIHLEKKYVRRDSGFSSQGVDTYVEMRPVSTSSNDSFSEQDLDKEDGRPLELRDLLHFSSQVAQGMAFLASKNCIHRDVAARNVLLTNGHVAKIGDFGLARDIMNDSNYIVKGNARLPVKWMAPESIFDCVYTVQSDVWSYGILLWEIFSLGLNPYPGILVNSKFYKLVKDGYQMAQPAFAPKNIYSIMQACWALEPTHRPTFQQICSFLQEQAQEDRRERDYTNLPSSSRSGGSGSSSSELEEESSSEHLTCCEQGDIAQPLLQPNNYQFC
BLK (human), sequence (P51451 whole entry, looked up): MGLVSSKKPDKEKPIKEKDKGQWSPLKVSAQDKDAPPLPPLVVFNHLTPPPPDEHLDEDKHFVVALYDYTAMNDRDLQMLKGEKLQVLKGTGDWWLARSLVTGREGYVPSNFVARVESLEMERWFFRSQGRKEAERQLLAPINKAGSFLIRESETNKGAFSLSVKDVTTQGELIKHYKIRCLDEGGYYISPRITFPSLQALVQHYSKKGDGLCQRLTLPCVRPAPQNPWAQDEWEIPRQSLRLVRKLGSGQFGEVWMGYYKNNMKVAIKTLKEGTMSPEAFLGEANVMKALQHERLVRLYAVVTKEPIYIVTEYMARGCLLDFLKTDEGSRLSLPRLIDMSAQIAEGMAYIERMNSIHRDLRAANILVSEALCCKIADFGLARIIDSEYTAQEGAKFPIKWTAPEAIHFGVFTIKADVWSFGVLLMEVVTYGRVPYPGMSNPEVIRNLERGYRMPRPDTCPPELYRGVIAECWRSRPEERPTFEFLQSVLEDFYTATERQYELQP
FGFR3 (human), P22607 [G697C], sequence (P22607 whole entry G697C, looked up): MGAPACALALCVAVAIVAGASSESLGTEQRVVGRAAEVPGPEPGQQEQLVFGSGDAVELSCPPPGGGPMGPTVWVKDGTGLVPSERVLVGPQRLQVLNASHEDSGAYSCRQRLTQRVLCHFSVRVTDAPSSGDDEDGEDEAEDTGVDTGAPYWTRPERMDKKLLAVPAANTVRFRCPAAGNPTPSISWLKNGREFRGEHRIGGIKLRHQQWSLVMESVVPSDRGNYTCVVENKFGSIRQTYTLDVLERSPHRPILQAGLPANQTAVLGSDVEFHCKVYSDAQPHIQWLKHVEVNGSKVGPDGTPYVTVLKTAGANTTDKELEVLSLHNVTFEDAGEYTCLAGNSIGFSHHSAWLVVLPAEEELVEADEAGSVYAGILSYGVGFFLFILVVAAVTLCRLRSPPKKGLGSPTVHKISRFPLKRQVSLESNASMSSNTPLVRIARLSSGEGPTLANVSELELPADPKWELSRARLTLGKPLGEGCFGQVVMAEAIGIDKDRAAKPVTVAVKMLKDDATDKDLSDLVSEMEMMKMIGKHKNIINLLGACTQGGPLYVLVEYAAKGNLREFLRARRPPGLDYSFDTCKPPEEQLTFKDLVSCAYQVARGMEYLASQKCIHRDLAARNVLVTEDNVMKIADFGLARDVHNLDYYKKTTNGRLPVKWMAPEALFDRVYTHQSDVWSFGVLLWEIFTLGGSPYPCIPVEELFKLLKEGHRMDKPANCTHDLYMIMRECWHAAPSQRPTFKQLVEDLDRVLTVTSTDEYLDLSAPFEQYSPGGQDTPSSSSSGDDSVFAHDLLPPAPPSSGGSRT
JAK3 JH1 catalytic (human), sequence (P52333 whole entry, looked up): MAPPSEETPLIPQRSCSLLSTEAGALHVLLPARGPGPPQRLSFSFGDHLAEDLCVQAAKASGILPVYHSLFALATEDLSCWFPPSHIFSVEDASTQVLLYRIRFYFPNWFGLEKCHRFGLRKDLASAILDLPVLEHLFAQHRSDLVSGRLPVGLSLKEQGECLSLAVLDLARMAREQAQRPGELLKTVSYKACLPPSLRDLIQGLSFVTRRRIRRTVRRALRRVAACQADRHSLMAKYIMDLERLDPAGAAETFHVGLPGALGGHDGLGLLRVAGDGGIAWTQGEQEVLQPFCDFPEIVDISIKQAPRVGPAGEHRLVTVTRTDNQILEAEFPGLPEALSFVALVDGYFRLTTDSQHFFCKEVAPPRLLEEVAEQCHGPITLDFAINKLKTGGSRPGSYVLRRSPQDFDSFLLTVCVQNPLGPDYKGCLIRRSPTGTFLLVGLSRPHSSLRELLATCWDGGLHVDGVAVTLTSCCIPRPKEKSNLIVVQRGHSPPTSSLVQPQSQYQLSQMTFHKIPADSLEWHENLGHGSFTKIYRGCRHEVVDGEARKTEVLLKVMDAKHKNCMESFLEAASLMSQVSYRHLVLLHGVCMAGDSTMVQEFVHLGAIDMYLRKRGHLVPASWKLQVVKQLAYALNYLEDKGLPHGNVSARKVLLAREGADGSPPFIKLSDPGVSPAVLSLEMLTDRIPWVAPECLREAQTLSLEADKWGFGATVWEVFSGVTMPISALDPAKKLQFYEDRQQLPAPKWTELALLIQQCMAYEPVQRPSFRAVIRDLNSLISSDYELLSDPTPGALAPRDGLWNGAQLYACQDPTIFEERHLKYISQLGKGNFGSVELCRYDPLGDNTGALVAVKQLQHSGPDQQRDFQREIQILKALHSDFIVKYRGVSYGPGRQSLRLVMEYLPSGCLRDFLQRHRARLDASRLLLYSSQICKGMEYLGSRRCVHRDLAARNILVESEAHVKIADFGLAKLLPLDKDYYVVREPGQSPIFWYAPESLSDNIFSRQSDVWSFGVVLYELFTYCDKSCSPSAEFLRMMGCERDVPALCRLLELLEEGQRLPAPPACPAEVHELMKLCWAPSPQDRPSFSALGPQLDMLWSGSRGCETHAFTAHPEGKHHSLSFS
MAPK14 (human), sequence (Q16539 whole entry, looked up): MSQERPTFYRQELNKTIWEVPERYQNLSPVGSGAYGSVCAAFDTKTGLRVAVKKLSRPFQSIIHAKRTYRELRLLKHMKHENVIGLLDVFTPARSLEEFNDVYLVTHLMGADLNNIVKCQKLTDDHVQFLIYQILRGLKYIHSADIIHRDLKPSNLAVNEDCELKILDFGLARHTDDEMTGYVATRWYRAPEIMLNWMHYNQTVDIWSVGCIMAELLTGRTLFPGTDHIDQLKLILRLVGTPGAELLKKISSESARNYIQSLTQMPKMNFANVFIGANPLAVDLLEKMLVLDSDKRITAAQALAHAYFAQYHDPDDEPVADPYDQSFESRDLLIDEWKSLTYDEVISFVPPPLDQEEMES

`CCN1CCN(Cc2ccc(NC(=O)c3ccc(C)c(/C=C/c4cnc(Nc5cc(N6CCNCC6)nc(C)n5)cn4)c3)cc2C(F)(F)F)CC1` showed an IC50 (FES (human)) of 224 µM, a kinase still bound, per cent of control [1] of 0.3% and a kinase still bound, per cent of control (AKT3 (human)) of 81%. For the same compound, the kinase still bound, per cent of control (BLK (human)) was 0.1%, the kinase still bound, per cent of control (CLK1 (human)) was 29% and the kinase still bound, per cent of control (CLK4 (human)) was 31%. It also gave a kinase still bound, per cent of control (CSF1R (human)) of 1.1%, a kinase still bound, per cent of control (CSNK1E (human)) of 100% and a kinase still bound, per cent of control (DAPK2 (human)) of 66%. The kinase still bound, per cent of control (DYRK1B (human)) was 76%, the kinase still bound, per cent of control [2] was 0.2% and the kinase still bound, per cent of control (FGFR1 (human)) was 1.6%. It also gave a kinase still bound, per cent of control (FGFR2 (human)) of 10%, a kinase still bound, per cent of control [3] of 23% and a kinase still bound, per cent of control (HIPK1 (human)) of 34%. For the same compound, the kinase still bound, per cent of control (IKBKB (human)) was 0.95%, the kinase still bound, per cent of control [4] was 80% and the kinase still bound, per cent of control [5] was 3.2%. It also gave a kinase still bound, per cent of control (MAP2K2 (human)) of 11%, a kinase still bound, per cent of control (MAP2K6 (human)) of 100% and a kinase still bound, per cent of control (MAP3K3 (human)) of 0.3%. The kinase still bound, per cent of control (MAP4K1 (human)) was 0%, the kinase still bound, per cent of control (MAPK14 (human)) was 4.6% and the kinase still bound, per cent of control (MAPK3 (human)) was 94%. It also gave a kinase still bound, per cent of control (MAPK6 (human)) of 100%, a kinase still bound, per cent of control (MKNK2 (human)) of 18% and a kinase still bound, per cent of control (MYO3B (human)) of 67%. It also gave a kinase still bound, per cent of control (NEK5 (human)) of 49%, a kinase still bound, per cent of control (PDGFRA (human)) of 2.8% and a kinase still bound, per cent of control (PDGFRB (human)) of 0%. It also gave a kinase still bound, per cent of control (PIM1 (human)) of 76%, a kinase still bound, per cent of control (PIP5K1A (human)) of 86% and a kinase still bound, per cent of control (PRKAA2 (human)) of 14%. For the same compound, the kinase still bound, per cent of control (PRKCQ (human)) was 81%, the kinase still bound, per cent of control (RIPK1 (human)) was 2.7% and the kinase still bound, per cent of control (STK17A (human)) was 11%. For the same compound, the kinase still bound, per cent of control (STK33 (human)) was 90%, the kinase still bound, per cent of control (STK36 (human)) was 0.1% and the kinase still bound, per cent of control (TAOK1 (human)) was 7%. The kinase still bound, per cent of control (TNNI3K (human)) was 12%, the kinase still bound, per cent of control (TTK (human)) was 85% and the kinase still bound, per cent of control (TYRO3 (human)) was 37%.

For `CCN1CCN(Cc2ccc(NC(=O)c3ccc(C)c(Oc4ccnc5[nH]ccc45)c3)cc2C(F)(F)F)CC1`, the IC50 (FES (human)) was 298 µM, the kinase still bound, per cent of control [1] was 1.2% and the kinase still bound, per cent of control (BLK (human)) was 0.45%. The kinase still bound, per cent of control (CSF1R (human)) was 0%, the kinase still bound, per cent of control [2] was 1.2% and the kinase still bound, per cent of control (FGFR1 (human)) was 1.7%. It also gave a kinase still bound, per cent of control (FGFR2 (human)) of 1.4%, a kinase still bound, per cent of control [3] of 16% and a kinase still bound, per cent of control (HIPK1 (human)) of 6.2%. For the same compound, the kinase still bound, per cent of control (IKBKB (human)) was 24%, the kinase still bound, per cent of control [5] was 11% and the kinase still bound, per cent of control (MAP3K3 (human)) was 12%. The kinase still bound, per cent of control (MAP4K1 (human)) was 1.6%, the kinase still bound, per cent of control (MAPK14 (human)) was 0% and the kinase still bound, per cent of control (MKNK2 (human)) was 4.2%. For the same compound, the kinase still bound, per cent of control (MYO3B (human)) was 4.8%, the kinase still bound, per cent of control (PDGFRA (human)) was 0.6% and the kinase still bound, per cent of control (PDGFRB (human)) was 0%. The kinase still bound, per cent of control (RIPK1 (human)) was 0%, the kinase still bound, per cent of control (STK36 (human)) was 0.2% and the kinase still bound, per cent of control (TAOK1 (human)) was 3%. It also gave a kinase still bound, per cent of control (TNNI3K (human)) of 4.8% and a kinase still bound, per cent of control (TTK (human)) of 24%.
